“And” between values parts separate entries of the source, which are not always exact repeats. Equal entries are not always repeated. Where two headings read alike, the source gives them in different places.
Key:
Assay type in all cases: in vivo, pig
[1] = test system: porcine model of lipopolysaccharide (LPS)-induced sepsis; conditions: for CO (cardiac output) / CVP (central venous pressure) / EVLW (extravascular lung water content) / MAP (mean arterial pressure) / MPAP (mean pulmonary arterial pressure) / NA (noradrenaline dosage required for hemodynamic stability) / PaCO2 (arterial partial pressure of carbon dioxide) / Pendinsp (end-inspiratory pressure) / RR (respiratory rate): median
Experimental: Following animal care committee approval (Landesuntersuchungsamt Rheinland-Pfalz, Koblenz, Germany; approval number 23 177-07/G12-1-058) 18 juvenile pigs (weight 25-27 kg) were examined in a randomized, investigator-blinded setting.
After sedation with intramuscular injection of ketamine (8 mg kg^−1) and midazolam (0.2 mg kg^−1) and preparation of vascular access, anesthesia was induced and maintained by intravenous propofol and fentanyl administration (8-12 mg kg^−1 h^−1/0.1-0.2 mg h^−1). A single dose of atracurium (0.5 mg kg^−1) was applied to facilitate orotracheal intubation. Ventilation (Respirator: AVEA®, CareFusion, USA) was started in pressure-controlled mode with a tidal volume of (Vt) of 8 mL kg^−1, positive end-expiratory pressure (PEEP) of 5 cmH2O, FiO2 of 0.3-0.4 and a variable respiratory rate to maintain normocapnia. A balanced saline solution (Sterofundin iso, B. Braun, Germany) was continuously infused at a rate of 10 mL kg^−1h^−1. Vascular catheters were placed ultrasound-guided in Seldinger's technique and under sterile conditions: an arterial line, a pulse contour cardiac output catheter (PiCCO, Pulsion Medical Systems, Germany) and central venous line were inserted via femoral vein access. A 7.5-French introducer for a pulmonary artery catheter was placed via the right internal jugular vein. Ventilatory and extended hemodynamic parameters were recorded continuously (Datex S/5, GE Healthcare, Germany). Body temperature was measured by a rectal probe and normothermia was maintained by body surface warming
(§1) Following instrumentation baseline parameters were assessed at healthy state. FIG. 1 summarizes the experimental protocol: systemic inflammation was induced by continuous LPS infusion (Escherichia coli serotype O111:B4, Sigma-Aldrich, Switzerland) for one hour at 100 μg kg^−1 h^−1, followed by 10 μg kg^−1h^−1 for the entire experiment. Initial high-dose infusion was combined with a non-protective ventilation setting (Vt 25 mL kg^−1, zero PEEP, FiO2 1.0) to add a VILI component. Afterwards the ventilation mode was switched to a more lung protective setting: Vt of 8 mL kg^−1, PEEP 5 cm H2O, FiO2 of 0.4-0.5, and a variable respiratory rate to maintain a pH>7.2. The animals were monitored over six hours after sepsis induction. During the induction phase a non-participant randomized the animals into two groups and prepared the peptide solution as previously described (Hartmann E K et al, Acta anaesthesiologica Scandinavica 2013, 57(3):334-341) for blinded endotracheal inhalation.
(§2) Group (1) animals, to which 1 mg kg^−1 of a compound of formula I of the amino acid sequence SEQ ID NO:5 was administered at zero and three hours;
To maintain hemodynamic stability (mean arterial pressure >60 mmHg) additional fluid boli were administered (150 ml of balanced saline or hydroxyethyl starch once every hour). Persisting instability was treated by continuous central venous noradrenaline infusion. At the end of the experiments the animals were killed in deep general anesthesia by intravenous injection of propofol (200 mg) and potassium chloride (40 mval).
(§3) Data are expressed as median and interquartile range (IQR) respectively box-plots. Intergroup comparisons were tested with the Mann-Whitney-U-Test. If multiple testing was performed, P values were adjusted by the Bonferroni correction. Intragroup time courses of repetitively measured parameters were analyzed by Friedman ANOVA on ranks and post-hoc Student-Newman-Keuls-Test. P values below 0.05 were regarded as significant. Physiological data (ventilator and hemodynamic data) as set out in Table 1 were analyzed in explorative manner only. The statistical software SigmaPlot 11.0 (Systat Inc., USA) was used.

LPS-induced lung injury = test: Post-mortem macroscopic and histopathological lung injury scoring and lung wet to dry ratio in LPS-septic pigs; conditions: for hemorrhage, histopathological score / alveolar edema, histopathological score / epithelial destruction, histopathological score / inflammatory infiltration, histopathological score / interstitial edema, histopathological score / microatelectasis, histopathological score / overdistension, histopathological score: post-mortem at 6 h, median (IQR); for hemorrhage, histopathological score: 0 to 5 points, CTRL higher, P<0.05 vs. Group (1); for alveolar edema, histopathological score / epithelial destruction, histopathological score / inflammatory infiltration, histopathological score / interstitial edema, histopathological score / microatelectasis, histopathological score / overdistension, histopathological score: severity 0 to 5 points
Experimental: as §1, §2
The lungs were removed en-bloc after thoracotomy. A macroscopic lung injury score was assessed as previously described in detail (Lim C M et al, Lung 2003, 181(1):23-34). Four ventral and dorsal segments (each upper/lower right, upper/lower left) of the lung surface were examined for hemorrhage and congestion (2 points>50%, 1 point for<50%, 0 points for no or minimal changes). The right lung was fixed in 10% buffered formalin. Representative tissue samples were paraffin embedded and cut for hematoxylin and eosin staining A blinded investigator under supervision of a senior pathologist performed the histopathological assessment. In different lung regions (non-dependent periphery and bronchial, dependent periphery and bronchial) morphological changes were rated for seven criteria (alveolar edema, interstitial edema, hemorrhage, inflammatory infiltration, epithelial damage, microatelectasis and overdistension). The severity of each parameter ranged from 0 (no occurrence) to 5 points (complete field). For every lung region we used the mean value of four non-overlapping microscopy fields. The sum of the regional scores in all lung regions adds to a maximum injury score of 140 points (7 parameters×5 maximum points per parameter from 4 lung regions). Additionally the regional distribution of each parameter was assessed in the dependent versus non-dependent lung regions. Similar scoring procedures were described previously (Spieth P M et al, Intensive Care Med 2007, 33(2):308-314; Wang H M et al, Eur Surg Res 2010, 45(3-4):121-133).The left lung was weighted immediately after removal and dried afterwards at 60° C. for 72 hours to determine the dry weight and wet to dry ratio (W/D).
as §3

[2] = test system: intrapulmonary mRNA of IL-1β, IL-6, TNF-α, COX-2, iNOS, amphiregulin, tenascin-c; test: Intrapulmonary mRNA quantification (real-time PCR, normalized to PPIA) in lung tissue of LPS-septic pigs
Experimental: as §1, §2
To determine intrapulmonary inflammation mRNA levels of pro-inflammatory cytokines interleukin-1β (IL-1β), interleukin-6 (IL-6), TNF-α, and enzymes prostaglandin G/H synthase-2 (COX-2) and inducible nitric oxide synthase (iNOS) were quantified. Amphiregulin and tenascin-c expression levels were examined as surrogates of mechanical stress and remodeling. Four representative samples from the left lung (upper/lower lobe, each dependent/non-dependent) were collected, snap frozen in liquid nitrogen and stored at −80° C. RNA extraction and quantification procedure by real-time polymerase chain reaction (Lightcycler 480 PCR System, Roche Applied Science, Germany) was conducted as previously described in detail.[17-19] mRNA expression data were normalized against peptidylprolyl isomerase A (PPIA) as control gene.
as §3

plasma IL-6 and TNF-α = test: Plasma levels of IL-6 and TNF-α by ELISA in LPS-septic pigs; conditions: vs CTRL; repetitive inhalation; compared with the effect on pulmonary expression
Experimental: as §1, with “During the induction phase a non-participant randomized the animals into two groups and prepared the peptide solution as previously described (Hartmann E K et al, Acta anaesthesiologica Scandinavica 2013, 57(3):334-341) for blinded endotracheal inhalation.” left out
Blood gas values were obtained using a Rapidlab 248 device (Bayer Healthcare, Germany) Hematological parameters were sampled during baseline, sepsis induction and after three and six hours. Lactate plasma levels, leucocyte and platelet counts were analyzed by the Institute of Laboratory Medicine, Medical Center of the Johannes Gutenberg-University. The plasma levels of IL-6 and TNF-α were determined by quantifying enzyme linked immunosorbent assays according to the manufacturer's instructions (Porcine IL-6 Quantikine ELISA, Porcine TNF-α Quantikine ELISA, R&D Systems, Germany).

[3] = 3 h, 1 mg kg^−1 inhaled at zero and three hours
[4] = 6 h, 1 mg kg^−1 inhaled at zero and three hours
[5] = Baseline, before LPS and inhalation
[6] = Sepsis/VILI induction, before first inhalation
[7] = vs CTRL, lung tissue at 6 h, 1 mg kg^−1 inhaled at zero and three hours

## Cyclo(4-aminobutanoic acid-GQRETPEGAEAKPWYD) (XGQRETPEGAEAKPWYD; cyclized via N-terminal 4-aminobutanoic acid to Asp side chain; cyclized compound for use in inflammation) [SEQ ID NO:5, amide bond between amino group of N-terminal 4-aminobutanoic acid and β-carboxyl side chain of C-terminal aspartic acid]
[1]; [3]
  CO (cardiac output): 3.2 L/min
  CVP (central venous pressure): 11 mmHg
  EVLW (extravascular lung water content): 12 mL/kg
  MAP (mean arterial pressure): 61 mmHg
  MPAP (mean pulmonary arterial pressure): 33 mmHg
  NA (noradrenaline dosage required for hemodynamic stability): 0.2 µg/kg/min
  PaCO2 (arterial partial pressure of carbon dioxide): 43 mmHg
  Pendinsp (end-inspiratory pressure): 22 cmH2O
  RR (respiratory rate): 34 min⁻¹
[1]; [4]
  CO (cardiac output): 3.7 L/min
  CVP (central venous pressure): 13 mmHg
  EVLW (extravascular lung water content): 13 mL/kg
  MAP (mean arterial pressure): 66 mmHg
  MPAP (mean pulmonary arterial pressure): 30 mmHg
  NA (noradrenaline dosage required for hemodynamic stability): 0.8 µg/kg/min
  PaCO2 (arterial partial pressure of carbon dioxide): 43 mmHg
  Pendinsp (end-inspiratory pressure): 19 cmH2O
  RR (respiratory rate): 32 min⁻¹
[1]; [5]
  CO (cardiac output): 4.5 L/min
  CVP (central venous pressure): 11 mmHg
  EVLW (extravascular lung water content): 10 mL/kg
  MAP (mean arterial pressure): 90 mmHg
  MPAP (mean pulmonary arterial pressure): 22 mmHg
  NA (noradrenaline dosage required for hemodynamic stability): 0 µg/kg/min
  PaCO2 (arterial partial pressure of carbon dioxide): 45 mmHg
  RR (respiratory rate): 29 min⁻¹
[1]; Baseline, healthy state before LPS and inhalation
  Pendinsp (end-inspiratory pressure): 14 cmH2O
[1]; [6]
  CO (cardiac output): 4.5 L/min
  CVP (central venous pressure): 10 mmHg
  EVLW (extravascular lung water content): 11 mL/kg
  MAP (mean arterial pressure): 100 mmHg
  MPAP (mean pulmonary arterial pressure): 23 mmHg
  NA (noradrenaline dosage required for hemodynamic stability): 0 µg/kg/min
  PaCO2 (arterial partial pressure of carbon dioxide): 35 mmHg
  Pendinsp (end-inspiratory pressure): 22 cmH2O
  RR (respiratory rate): 9 min⁻¹
[1]; pig, in vivo
  Raw (airway resistance): 10 cmH2O L^−1s^−1 and 12 cmH2O L^−1s^−1 and 11 cmH2O L^−1s^−1
LPS-induced lung injury; dependent lung regions
  hemorrhage, histopathological score: 0.1 (0.8)
  alveolar edema, histopathological score: 0 (0.1)
  epithelial destruction, histopathological score: 0 (0)
  inflammatory infiltration, histopathological score: 3.4 (1.6)
  interstitial edema, histopathological score: 1.3 (0;8)
  microatelectasis, histopathological score: 3.8 (2.4)
  overdistension, histopathological score: 3.5 (1.7)
LPS-induced lung injury; left lung, vs CTRL Group (2), trend
  pulmonary wet to dry ratio (W/D): higher
LPS-induced lung injury; non-dependent lung regions
  hemorrhage, histopathological score: 0 (0)
  alveolar edema, histopathological score: 0 (0)
  epithelial destruction, histopathological score: 0 (0)
  inflammatory infiltration, histopathological score: 3.8 (1.4)
  interstitial edema, histopathological score: 0.9 (1.1)
  microatelectasis, histopathological score: 3.8 (1.4)
  overdistension, histopathological score: 4.1 (0.9)
LPS-induced lung injury; vs CTRL Group (2), sustained lung injury in both groups
  post-mortem macroscopic and histologic lung injury: trend towards a less pronounced damage
[2]; at 6 hours post insult, peptide inhalation, LPS-induced lung injury in pigs
  intrapulmonary inflammatory response: significantly reduced
[2]; vs CTRL, p=0.003, lung tissue at 6 h, 1 mg kg^−1 inhaled at zero and three hours
  intrapulmonary overall mRNA expression of COX-2: significantly lower
[2]; vs CTRL, p=0.015, lung tissue at 6 h, 1 mg kg^−1 inhaled at zero and three hours
  intrapulmonary tenascin-c expression: decreased
[2]; vs CTRL, p=0.041, lung tissue at 6 h, 1 mg kg^−1 inhaled at zero and three hours
  intrapulmonary overall mRNA expression of TNF-α: significantly lower
[2]; vs CTRL, p=0.043, lung tissue at 6 h, 1 mg kg^−1 inhaled at zero and three hours
  intrapulmonary overall mRNA expression of IL-6: significantly lower
[2]; [7]
  intrapulmonary mRNA expression of IL-1β: less differences
  intrapulmonary mRNA expression of iNOS: less differences
Plasma IL-6 and TNF-α
  plasma level of IL-6: less affected
  plasma level of TNF-α: less affected
